From patent US7022481B2, “Methods of using glucan synthase pathway reporter genes to screen for antifungal compounds” (Rosetta Inpharmatics LLC, priority 2002, dated 2006)
Converted amounts (≈) assume the structure as drawn. Like-named read-outs stand apart in the source and are kept apart here.

Columns and labels:
Type in all cases: cell-based, S. cerevisiae
[1] = system: wild-type S288C strain; test: microbe, parasite or virus in culture
Experimental: First, comprehensive gene expression profiles for S. cerevisiae grown in the presence of known inhibitors of glucan synthase were constructed. Enfumafungin and Ascosteroside were two known glucan synthase inhibitors used in the present invention. Prior to exposing the GRM to these two glucan synthase inhibitors, growth inhibition studies were performed on wild-type S288C strain in order to determine the appropriate concentrations for GRM profiling.

[2] = system: ABY12 strain; test: growth inhibition (IC values) in the ABY12 strain
From the text: 3. The drug-like agents selected for the assay were the GS inhibitors Enfumafungin, Ascosteroside, and Dihydropapulacandin B; along with the Elongation Factor 2 (EF2) inhibitor Sordarin, to be used as a negative control. These four drugs were all added to the second column of each 96-well assay plate and serially diluted (1 to 2) into Casamino Acids media plus 2% DMSO in columns 3–12, so that column 2 of each plate will contain the highest concentration of each drug and column 12 will contain the lowest. The first column of each plate was used as a “no drug” control, containing only Casamino Acids media plus 2% DMSO. The concentrations for each drug that were added to the wells in column 2 are shown in Table VI (Maximum Concentration Tested) along with the rows of each plate they were added to (Table VI, Rows).
5. After the 24 hour incubation the 96-well assay plates were imaged in a Molecular Dynamics Fluorimager SI to measure the fluorescence from the GFP reporters. […] Additionally, none of the compounds tested induced increased fluorescence from the reporter for inhibition of sterol biosynthesis, HES1 (FIG. 20). […] Of note here is the fact that the highest concentrations tested were all substantially greater than the measured IC50's for these compounds in the ABY12 strain (Table VI). Therefore these strains are capable of reporting on inhibition of GS even at drug concentrations that inhibit cell growth. This is an important characteristic of this assay as the preferred method of high-throughput screening would be to perform the screens at one high concentration for every compound assayed. It has been previously shown that the HES1 reporter strain is capable of performing under such assay conditions in a 384-well formatted high-throughput screen of a combinatorial library (WO 00/58521, PCT published application).

[3] = system: gene reporters in the GRM (promoter-GFP fusions); test: Genome Reporter Matrix (GRM) reporter gene expression profiling
From the text: Genome Reporter Matrix™ (GRM) technology was used to generate the gene expression profiles that the glucan synthase inhibition treatments induced in the yeast S. cerevisiae. The GRM was used to generate comprehensive gene expression profiles in the yeast S. cerevisiae. The GRM used in the present invention was a matrix of units comprising living S. cerevisiae cells, the cells in each unit containing one S. cerevisiae reporter fusions (GRM construct) representative of essentially every known gene and hypothetical open reading frame (ORF) of S. cerevisiae. The GRM constructs used in the present invention comprised a promoter, 5′ upstream untranslated region and usually the first four amino acids from one of each hypothetical ORF fused to a gene encoding the green fluorescent protein (GFP).
Solutions of test compounds were added directly to the solid agar growth media plates prior to addition of S. cerevisiae strains. The individual strains comprising the GRM were maintained as independent colonies (and cultures) in a 96-well format, in medium selecting for the URA2-containing reporter plasmid. Prior to each experiment, fresh dilutions of the reporter-containing strains were inoculated and grown overnight at 30° C. A Hamilton MicroLab 4200, a multichannel gantry robot equipped with a custom pin tool device capable of dispensing 50 nanoliter volumes in a highly reproducible manner, was used to array the matrix of S. cerevisiae strains in a uniform manner onto solid agar growth media at a density of 1536 reporter strains per 110 cm^2 plate. Fifty nanoliters of S. cerevisiae liquid cultures arrayed onto solid medium by the Hamilton Microlab 4200 results in colony-to-colony signal reproducibility of less than 5% variation. Once arrayed, each plate was grown at 30° C. for 18 hours or at 25° C. for 24 hours.
The level of fluorescence expressed from each reporter gene fusion was determined using a Molecular Dynamics Fluorimager SI. Custom image analysis software was used to quantitate the fluorescence of each colony in the images.

[4] = system: lawn of the YOL113W (SKM1) reporter strain (ABY12); test: solid plate halo assay, growth of lawn; settings: 20 ul of 200 μg/ml (low) and 20 ul of 1 mg/ml (high) on paper disc, 23 hour incubation
Experimental: (§1) This assay is meant to mimic assays where natural product producing strains would be either plated onto a lawn of our ABY12 reporter carrying strains, or an agar overlay containing the ABY12 reporter strain would be placed over a plate containing natural product producing strains, the purpose being identifying strains that are producing molecules that inhibit GS.
(§2) 1. The YOL113W (SKM1) reporter transformed into wild-type S. Cerevisiae strain ABY12 was grown on a solid Casamino Acids media plate.
(§3) 2. The culture from the solid media plate was used to inoculate a 50 ml liquid culture in Casamino Acids media. This liquid culture was grown overnight at 30 degrees Celsius. The culture was grown to a final OD600=10.5. This culture was then diluted in Casamino Acids media to an OD600=1, or 1×10^7 cells per milliliter. Five-hundred microliters of cell culture (5×10^6 cells) was then spread evenly over the surface of each of two 100 mm solid agar-Casamino-acids-media plates to form a lawn of the YOL113W (SKM1) reporter strain on each plate.
(§4) 3. Two 6 mm diameter blank paper discs (BECTON DICKINSON® #231039) were placed on top of the agar surface of each plate evenly spaced apart. […]
(§5) 4. After a 23 hour incubation the assay plates were imaged in a Molecular Dynamics Fluorimager SI to measure the fluorescence from the GFP reporters. […]

[5] = system: YOL113W (SKM1) reporter; test: solid plate halo assay, reporter fluorescence; settings: 20 ul of 200 μg/ml and 1 mg/ml on paper disc, 23 hour incubation
Experimental: as §1, §2, §3, §4, §5

[6] = system: YOL113W (SKM1), YNR066C, YLR121C (YPS3), YKL161C, and YAR050W (FLO1) GFP reporters; test: liquid high-throughput like 96-well GFP reporter assay, glucan synthase pathway reporters; settings: serial 1 to 2 dilutions, ~24 hours at 30 degrees Celsius, five GS reporters
Experimental: The five reporters selected were: YOL113W (SKM1), YNR066C, YLR121C (YPS3), YKL161C, and YAR050W (FLO1). Another reporter, YOR237W (HES1), was selected as a negative control.
1. Reporters transformed into wild-type S. Cerevisiae strain ABY12 were grown on solid Casamino Acids media plates.
2. The cultures from the solid media plates were used to inoculate 50 ml liquid cultures in Casamino Acids media. These liquid cultures were grown overnight at 30 degrees Celsius. The cultures were all grown to a final OD600˜=8 (Table V).
These cultures were then diluted in Casamino Acids media to and OD600=2.
3. The drug-like agents selected for the assay were the GS inhibitors Enfumafungin, Ascosteroside, and Dihydropapulacandin B; along with the Elongation Factor 2 (EF2) inhibitor Sordarin, to be used as a negative control. […]
5. After the 24 hour incubation the 96-well assay plates were imaged in a Molecular Dynamics Fluorimager SI to measure the fluorescence from the GFP reporters. […] Additionally, none of the compounds tested induced increased fluorescence from the reporter for inhibition of sterol biosynthesis, HES1 (FIG. 20). […] Of note here is the fact that the highest concentrations tested were all substantially greater than the measured IC50's for these compounds in the ABY12 strain (Table VI). […]

[7] = growth inhibition, wild-type S288C strain
[8] = Saccharomyces cerevisiae, read-out: IC50

Row | Compound | IC25 [1, 7] [µg/mL] | IC50 [1, 7] [µg/mL] | effectiveness in growth inhibition assays ([1]; wild-type S288C strain) | IC25 [2] [µg/mL] | IC50 [2] [µg/mL] | expression response of reporter YKL161C ([3]; 5 μg/ml in 1% DMSO, FIG. 9) | number of gene reporters significantly up- or down-regulated ([3]; lowest concentration (5.0 μg/ml), p<=0.01, of roughly 6,000 gene reporters in the GRM) | IC50 ([1]; Saccharomyces cerevisiae) [µg/mL] | IC75 [1, 7] [µg/mL] | IC75 [2] [µg/mL] | IC50 [2, 8] [µg/mL] | growth inhibition of the GRM ([3]; 0.60 μg/ml and 0.75 μg/ml) | growth of the lawn around paper disc (halo) [4] | induction of the YOL113W (SKM1) reporter (fluorescence at edge of halo) [5] | induction of the YOL113W (SKM1) reporter (fluorescence at edge of halo) ([5]; listed as enfumafungin) | fluorescence from the GFP reporters versus no drug controls [6]
1 | C=C(CC[C@H](C)[C@H]1C[C@@H](O)[C@@]2(C(=O)O)C3=C(CC[C@]12C)[C@@]1(C)CC[C@H](O[C@H]2O[C@H](CO)[C@@H](OC)[C@H](O)[C@H]2O)C(=C)[C@@H]1CC3)C(C)C [Ascosteroside] | 6.3 (≈ 9.74 µM) | 19 (≈ 29.4 µM) | effective | 6.3 (≈ 9.74 µM) | 19 (≈ 29.4 µM) | highly up-regulated | 318 | – | – | – | – | – | – | – | – | –
2 | CC(=O)O[C@@H]1C[C@]23C4=CC[C@@]5(C)[C@H](C(=O)O)[C@@](C)([C@H](C)C(C)C)CC[C@]5(C)[C@H]4CC[C@H]2[C@@](C)(COC3O)[C@H]1O[C@@H]1O[C@H](CO)[C@@H](O)[C@H](O)[C@H]1O (stereo partly shown) [Enfumafungin] | 0.54 (≈ 0.762 µM) | – | effective | 0.54 (≈ 0.762 µM) | – | – | – | 0.69 (≈ 0.973 µM) | 0.9 (≈ 1.27 µM) | 0.9 (≈ 1.27 µM) | 0.69 (≈ 0.973 µM) | too much growth inhibition | inhibited the growth of the lawn | significantly induced | upregulating SKM1 reporter | –
3 | CO[C@H]1[C@@H](O)[C@H](O)[C@H](OC[C@@]23C[C@@H]4[C@H](C)CC[C@H]4[C@@]4(C=O)CC2C=C(C(C)C)[C@@]34C(=O)O)O[C@@H]1C [Sordarin] | – | – | – | 1.1 (≈ 2.23 µM) | – | – | – | – | – | 2.5 (≈ 5.08 µM) | 1.5 (≈ 3.05 µM) | – | – | – | – | None of the reporters, however, showed any increase in fluorescence
4 | Dihydropapulacandin B | – | – | – | 3.7 | 4.4 | – | – | – | – | 5.3 | – | – | – | – | – | –
